Experimental data published in paper PMC5342196 (PLoS ONE, 2017).

Tested on: Lac161_ORF7
Test: glucose release, glucose oxidase/peroxidase assay
Type: biochemical, metagenome: corn field soil
Conditions: 100 mM MES pH 6.0, 50 °C (methods print Lac161_ORF3 for this temperature), 30 min

SMILES: OC[C@H]1O[C@@H](O[C@H]2[C@H](O)[C@@H](O)C(O)O[C@@H]2CO)[C@H](O)[C@@H](O)[C@H]1O (stereo partly shown) [lactose]
- Km: 1800 µM
